Experimental data reported in ChEMBL document CHEMBL5620403, “Design, synthesis, activity and molecular dynamics studies of 1,3,4-thiadiazole derivatives as selective allosteric inhibitors of SHP2 for the treatment of cancer” (Eur J Med Chem, 2023).
One block for each molecule: values may come before it.

What was measured:
[1] = target: T1, Tyrosine-protein phosphatase non-receptor type 11 (Homo sapiens, UniProt Q06124); assay: Inhibition of full length wild type recombinant human IRS-1 peptide activated SHP2 (1 to 525 residues) using DIPMUP as substrate preincubated for 30 mins followed by substrate addition and measured after 30 mins by fluorescence based analysis
T1 sequence (Q06124 whole entry): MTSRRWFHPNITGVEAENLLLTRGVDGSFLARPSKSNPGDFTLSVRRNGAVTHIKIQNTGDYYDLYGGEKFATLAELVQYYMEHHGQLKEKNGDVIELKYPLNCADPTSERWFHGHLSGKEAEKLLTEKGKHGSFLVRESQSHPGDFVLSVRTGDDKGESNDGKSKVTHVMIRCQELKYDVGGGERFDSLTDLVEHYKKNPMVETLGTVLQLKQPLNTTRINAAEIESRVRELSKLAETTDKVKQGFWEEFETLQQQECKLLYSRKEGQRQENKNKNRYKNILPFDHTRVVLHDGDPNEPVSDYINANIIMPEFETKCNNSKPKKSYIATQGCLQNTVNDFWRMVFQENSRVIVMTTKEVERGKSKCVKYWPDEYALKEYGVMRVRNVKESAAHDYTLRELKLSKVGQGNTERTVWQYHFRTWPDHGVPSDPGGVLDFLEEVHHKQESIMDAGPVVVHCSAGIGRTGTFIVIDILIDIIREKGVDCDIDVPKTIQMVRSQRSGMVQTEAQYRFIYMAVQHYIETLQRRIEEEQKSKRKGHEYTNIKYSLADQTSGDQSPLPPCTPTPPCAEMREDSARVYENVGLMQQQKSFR

[2] = Inhibition of full length recombinant human SHP2 E76A mutant (1 to 525 residues) using DIPMUP as substrate preincubated for 30 mins followed by substrate addition and measured after 30 mins by fluorescence based analysis
[3] = target: Tyrosine-protein phosphatase non-receptor type 6 (Homo sapiens, UniProt P29350); assay: Inhibition of full length recombinant human SHP1 (1 to 570 residues) using DIPMUP as substrate preincubated for 30 mins followed by substrate addition and measured after 30 mins by fluorescence based analysis
Chain of Tyrosine-protein phosphatase non-receptor type 6 (P29350 whole entry, the tested form may be a part): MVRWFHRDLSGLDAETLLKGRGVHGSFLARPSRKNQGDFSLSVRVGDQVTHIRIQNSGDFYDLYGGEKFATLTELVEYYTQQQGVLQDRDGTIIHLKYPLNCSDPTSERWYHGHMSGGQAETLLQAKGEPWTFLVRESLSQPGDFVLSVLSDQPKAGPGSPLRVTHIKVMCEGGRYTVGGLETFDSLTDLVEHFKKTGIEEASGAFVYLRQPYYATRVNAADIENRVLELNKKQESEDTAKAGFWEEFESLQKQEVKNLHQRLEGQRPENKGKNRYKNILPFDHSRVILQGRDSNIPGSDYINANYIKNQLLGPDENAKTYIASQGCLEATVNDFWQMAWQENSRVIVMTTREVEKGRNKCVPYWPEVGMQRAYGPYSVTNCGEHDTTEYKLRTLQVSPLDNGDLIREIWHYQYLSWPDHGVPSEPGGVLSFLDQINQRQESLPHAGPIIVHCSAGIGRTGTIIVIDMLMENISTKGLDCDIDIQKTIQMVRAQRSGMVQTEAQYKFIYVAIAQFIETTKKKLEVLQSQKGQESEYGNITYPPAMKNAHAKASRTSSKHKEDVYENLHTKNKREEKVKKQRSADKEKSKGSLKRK

NCI-H358 = assay: Antiproliferative activity against human NCI-H358 cells assessed as inhibition of cell growth measured after 72 hrs by CCK8 method; format: functional, cell-based; settings: NCI-H358, 72 h
MV4-11 [4] = assay: Antiproliferative activity against human MV4-11 cells assessed as inhibition of cell growth measured after 72 hrs by CCK8 method; format: functional, cell-based; settings: MV4-11, 72 h
A549 = assay: Antiproliferative activity against human A549 cells assessed as inhibition of cell growth measured after 72 hrs by CCK8 method; format: functional, cell-based; settings: A549, 72 h
MDA-MB-468 = assay: Antiproliferative activity against human MDA-MB-468 cells assessed as inhibition of cell growth measured after 72 hrs by CCK8 method; format: functional, cell-based; settings: MDA-MB-468, 72 h
MV4-11 [5] = assay: Induction of apoptosis in human MV4-11 cells assessed as viable cells at 1.25 uM measured after 4 hrs by Annexin V-FITC/7-AAD staining based flow cytometric analysis (reference value: 89.1%); format: functional
MV4-11 [6] = assay: Induction of apoptosis in human MV4-11 cells assessed as viable cells at 2.5 uM measured after 4 hrs by Annexin V-FITC/7-AAD staining based flow cytometric analysis (reference value: 89.1%); format: functional
MV4-11 [7] = assay: Induction of apoptosis in human MV4-11 cells assessed as viable cells at 5 uM measured after 4 hrs by Annexin V-FITC/7-AAD staining based flow cytometric analysis (reference value: 89.1%); format: functional
MV4-11 [8] = assay: Induction of apoptosis in human MV4-11 cells assessed as early apoptotic cells at 1.25 uM measured after 4 hrs by Annexin V-FITC/7-AAD staining based flow cytometric analysis (reference value: 5.97%); format: functional
MV4-11 [9] = assay: Induction of apoptosis in human MV4-11 cells assessed as early apoptotic cells at 2.5 uM measured after 4 hrs by Annexin V-FITC/7-AAD staining based flow cytometric analysis (reference value: 5.97%); format: functional
MV4-11 [10] = assay: Induction of apoptosis in human MV4-11 cells assessed as early apoptotic cells at 5 uM measured after 4 hrs by Annexin V-FITC/7-AAD staining based flow cytometric analysis (reference value: 5.97%); format: functional
MV4-11 [11] = assay: Induction of apoptosis in human MV4-11 cells assessed as late apoptotic cells at 1.25 uM measured after 4 hrs by Annexin V-FITC/7-AAD staining based flow cytometric analysis (reference value: 4.03%); format: functional
MV4-11 [12] = assay: Induction of apoptosis in human MV4-11 cells assessed as late apoptotic cells at 2.5 uM measured after 4 hrs by Annexin V-FITC/7-AAD staining based flow cytometric analysis (reference value: 4.03%); format: functional
MV4-11 [13] = assay: Induction of apoptosis in human MV4-11 cells assessed as late apoptotic cells at 5 uM measured after 4 hrs by Annexin V-FITC/7-AAD staining based flow cytometric analysis (reference value: 4.03%); format: functional
MV4-11 [14] = assay: Induction of apoptosis in human MV4-11 cells assessed as necrotic cells at 1.25 uM measured after 4 hrs by Annexin V-FITC/7-AAD staining based flow cytometric analysis (reference value: 0.86%); format: functional
MV4-11 [15] = assay: Induction of apoptosis in human MV4-11 cells assessed as necrotic cells at 2.5 uM measured after 4 hrs by Annexin V-FITC/7-AAD staining based flow cytometric analysis (reference value: 0.86%); format: functional
MV4-11 [16] = assay: Induction of apoptosis in human MV4-11 cells assessed as necrotic cells at 5 uM measured after 4 hrs by Annexin V-FITC/7-AAD staining based flow cytometric analysis (reference value: 0.86%); format: functional
MV4-11 [17] = assay: Induction of apoptosis in human MV4-11 cells assessed as viable cells at 5 uM measured after 1 hrs by Annexin V-FITC/7-AAD staining based flow cytometric analysis (reference value: 90.1%); format: functional
MV4-11 [18] = assay: Induction of apoptosis in human MV4-11 cells assessed as viable cells at 5 uM measured after 2 hrs by Annexin V-FITC/7-AAD staining based flow cytometric analysis (reference value: 90.1%); format: functional
MV4-11 [19] = assay: Induction of apoptosis in human MV4-11 cells assessed as viable cells at 5 uM measured after 4 hrs by Annexin V-FITC/7-AAD staining based flow cytometric analysis (reference value: 90.1%); format: functional
MV4-11 [20] = assay: Induction of apoptosis in human MV4-11 cells assessed as early apoptotic cells at 5 uM measured after 1 hrs by Annexin V-FITC/7-AAD staining based flow cytometric analysis (reference value: 4.28%); format: functional
MV4-11 [21] = assay: Induction of apoptosis in human MV4-11 cells assessed as early apoptotic cells at 5 uM measured after 2 hrs by Annexin V-FITC/7-AAD staining based flow cytometric analysis (reference value: 4.28%); format: functional
MV4-11 [22] = assay: Induction of apoptosis in human MV4-11 cells assessed as early apoptotic cells at 5 uM measured after 4 hrs by Annexin V-FITC/7-AAD staining based flow cytometric analysis (reference value: 4.28%); format: functional
MV4-11 [23] = assay: Induction of apoptosis in human MV4-11 cells assessed as late apoptotic cells at 5 uM measured after 1 hrs by Annexin V-FITC/7-AAD staining based flow cytometric analysis (reference value: 4.21%); format: functional
MV4-11 [24] = assay: Induction of apoptosis in human MV4-11 cells assessed as late apoptotic cells at 5 uM measured after 2 hrs by Annexin V-FITC/7-AAD staining based flow cytometric analysis (reference value: 4.21%); format: functional
MV4-11 [25] = assay: Induction of apoptosis in human MV4-11 cells assessed as late apoptotic cells at 5 uM measured after 4 hrs by Annexin V-FITC/7-AAD staining based flow cytometric analysis (Rvb =4.21%); format: functional
MV4-11 [26] = assay: Induction of apoptosis in human MV4-11 cells assessed as necrotic cells at 5 uM measured after 1 hrs by Annexin V-FITC/7-AAD staining based flow cytometric analysis (reference value: 0.92%); format: functional
MV4-11 [27] = assay: Induction of apoptosis in human MV4-11 cells assessed as necrotic cells at 5 uM measured after 2 hrs by Annexin V-FITC/7-AAD staining based flow cytometric analysis (reference value: 0.92%); format: functional
MV4-11 [28] = assay: Induction of apoptosis in human MV4-11 cells assessed as necrotic cells at 5 uM measured after 4 hrs by Annexin V-FITC/7-AAD staining based flow cytometric analysis (reference value: 0.92%); format: functional
[29] = target: T1, Tyrosine-protein phosphatase non-receptor type 11; assay: Inhibition of full length wild type recombinant human SHP2 (1 to 525 residues) using DIPMUP as substrate preincubated for 30 mins followed by substrate addition and measured after 30 mins by fluorescence based analysis
[30] = target: T1, Tyrosine-protein phosphatase non-receptor type 11; assay: Inhibition of recombinant human SHP2 PTPase activity (219 to 525 residues) using DIPMUP as substrate preincubated for 30 mins followed by substrate addition and measured after 30 mins by fluorescence based analysis
BEAS-2B = assay: Antiproliferative against human BEAS-2B cells assessed as inhibition of cell growth measured after 72 hrs by CCK8 method; format: toxicity, cell-based

SMILES: CC1(N)CCN(c2nnc(Sc3ccccc3F)s2)CC1
IC50 [1]: 6.99 µM

SMILES: CC1(N)CCN(c2cnc(-c3cccc(Cl)c3Cl)c(N)n2)CC1
IC50 [2]: 1.43 µM | IC50 [3]: > 50 µM | IC50 (NCI-H358): > 50 µM | IC50 (MV4-11 [4]): 2.78 µM | IC50 (A549): > 50 µM | IC50 (MDA-MB-468): 31.8 µM | Activity (MV4-11 [5]): 88.1% | Activity (MV4-11 [6]): 88.2% | Activity (MV4-11 [7]): 89.3% | Activity (MV4-11 [8]): 4.94% | Activity (MV4-11 [9]): 5.95% | Activity (MV4-11 [10]): 5% | Activity (MV4-11 [11]): 4.24% | Activity (MV4-11 [12]): 5.06% | Activity (MV4-11 [13]): 4.89% | Activity (MV4-11 [14]): 0.66% | Activity (MV4-11 [15]): 0.79% | Activity (MV4-11 [16]): 0.85% | Activity (MV4-11 [17]): 90.4% | Activity (MV4-11 [18]): 90% | Activity (MV4-11 [19]): 87.7% | Activity (MV4-11 [20]): 4.27% | Activity (MV4-11 [21]): 4.73% | Activity (MV4-11 [22]): 6.98% | Activity (MV4-11 [23]): 4.32% | Activity (MV4-11 [24]): 4.35% | Activity (MV4-11 [25]): 4.58% | Activity (MV4-11 [26]): 1.05% | Activity (MV4-11 [27]): 0.95% | Activity (MV4-11 [28]): 0.77%

SMILES: CC1(N)CCN(c2nnc(Sc3ccc4ccccc4c3)s2)CC1
IC50 [1]: 0.72 µM | IC50 [29]: 1.86 µM | IC50 [30]: > 50 µM | IC50 [3]: > 50 µM | IC50 (NCI-H358): 13.9 µM | IC50 (MV4-11 [4]): 3.02 µM | IC50 (A549): 13.8 µM | IC50 (MDA-MB-468): 3.64 µM | Activity (BEAS-2B): Toxic

SMILES: CC1(N)CCN(c2nnc(Sc3ccc(Cl)cc3Cl)s2)CC1
IC50 [1]: 5.43 µM

SMILES: CC1(N)CCN(c2nnc(-c3cccc4ccccc34)s2)CC1
IC50 [1]: 4.35 µM | IC50 [30]: > 50 µM | IC50 [3]: > 50 µM | IC50 (NCI-H358): 32.9 µM | IC50 (MV4-11 [4]): 3.32 µM | IC50 (A549): 19 µM | IC50 (MDA-MB-468): 5.42 µM

SMILES: CC1(N)CCN(c2nnc(-c3cccc(Cl)c3Cl)s2)CC1
IC50 [1]: 5.89 µM

SMILES: NC1CCN(c2nnc(Sc3cccc(Cl)c3Cl)s2)CC1
IC50 [1]: 5.53 µM

SMILES: CC1(N)CCN(c2nnc(Sc3cccc(Cl)c3Cl)s2)CC1
IC50 [1]: 0.97 µM | IC50 [29]: 3.69 µM | IC50 [30]: > 50 µM | IC50 [3]: > 50 µM | IC50 (NCI-H358): 8.64 µM | IC50 (MV4-11 [4]): 2.74 µM | IC50 (A549): 7.21 µM | IC50 (MDA-MB-468): 2.87 µM | Activity (BEAS-2B): Toxic

More lines, in order of falling IC50 [1], values ahead:

IC50 [1]: 4.95 µM
SMILES: COc1ccc2cc(-c3nnc(N4CCC(C)(N)CC4)s3)ccc2c1

IC50 [1]: 4.51 µM
SMILES: CC1(N)CCN(c2nnc(Sc3cccc4cccnc34)s2)CC1

IC50 [1]: 4.42 µM
SMILES: CC1(N)CCN(c2nnc(Sc3ccc(Cl)c(Cl)c3)s2)CC1

IC50 [1]: 4.35 µM
SMILES: CC1(N)CCN(c2nnc(-c3ccc4ccccc4c3)s2)CC1

IC50 [1]: 3.82 µM
SMILES: NCC1CCN(c2nnc(Sc3cccc(Cl)c3Cl)s2)CC1

IC50 [1]: 3.29 µM
SMILES: CC1(N)CCN(c2nnc(Sc3ccccc3Cl)s2)CC1

IC50 [1]: 1.12 µM
SMILES: CC1(CN)CCN(c2nnc(Sc3cccc(Cl)c3Cl)s2)CC1
